Among the data in US9586951B2 (FUJIFILM Corporation, priority 2013, dated 2017) are IC50 values, retold here.

The first assay deals with T1, ATM (Homo sapiens, UniProt Q13315).
T1 construct: detecting phosphorylation of Chk2 in a human non-small cell lung cancer cell line NCI-H460 (ATCC company); host or cells: NCI-H460 human non-small cell lung cancer cells
T1 sequence (Q13315 whole entry): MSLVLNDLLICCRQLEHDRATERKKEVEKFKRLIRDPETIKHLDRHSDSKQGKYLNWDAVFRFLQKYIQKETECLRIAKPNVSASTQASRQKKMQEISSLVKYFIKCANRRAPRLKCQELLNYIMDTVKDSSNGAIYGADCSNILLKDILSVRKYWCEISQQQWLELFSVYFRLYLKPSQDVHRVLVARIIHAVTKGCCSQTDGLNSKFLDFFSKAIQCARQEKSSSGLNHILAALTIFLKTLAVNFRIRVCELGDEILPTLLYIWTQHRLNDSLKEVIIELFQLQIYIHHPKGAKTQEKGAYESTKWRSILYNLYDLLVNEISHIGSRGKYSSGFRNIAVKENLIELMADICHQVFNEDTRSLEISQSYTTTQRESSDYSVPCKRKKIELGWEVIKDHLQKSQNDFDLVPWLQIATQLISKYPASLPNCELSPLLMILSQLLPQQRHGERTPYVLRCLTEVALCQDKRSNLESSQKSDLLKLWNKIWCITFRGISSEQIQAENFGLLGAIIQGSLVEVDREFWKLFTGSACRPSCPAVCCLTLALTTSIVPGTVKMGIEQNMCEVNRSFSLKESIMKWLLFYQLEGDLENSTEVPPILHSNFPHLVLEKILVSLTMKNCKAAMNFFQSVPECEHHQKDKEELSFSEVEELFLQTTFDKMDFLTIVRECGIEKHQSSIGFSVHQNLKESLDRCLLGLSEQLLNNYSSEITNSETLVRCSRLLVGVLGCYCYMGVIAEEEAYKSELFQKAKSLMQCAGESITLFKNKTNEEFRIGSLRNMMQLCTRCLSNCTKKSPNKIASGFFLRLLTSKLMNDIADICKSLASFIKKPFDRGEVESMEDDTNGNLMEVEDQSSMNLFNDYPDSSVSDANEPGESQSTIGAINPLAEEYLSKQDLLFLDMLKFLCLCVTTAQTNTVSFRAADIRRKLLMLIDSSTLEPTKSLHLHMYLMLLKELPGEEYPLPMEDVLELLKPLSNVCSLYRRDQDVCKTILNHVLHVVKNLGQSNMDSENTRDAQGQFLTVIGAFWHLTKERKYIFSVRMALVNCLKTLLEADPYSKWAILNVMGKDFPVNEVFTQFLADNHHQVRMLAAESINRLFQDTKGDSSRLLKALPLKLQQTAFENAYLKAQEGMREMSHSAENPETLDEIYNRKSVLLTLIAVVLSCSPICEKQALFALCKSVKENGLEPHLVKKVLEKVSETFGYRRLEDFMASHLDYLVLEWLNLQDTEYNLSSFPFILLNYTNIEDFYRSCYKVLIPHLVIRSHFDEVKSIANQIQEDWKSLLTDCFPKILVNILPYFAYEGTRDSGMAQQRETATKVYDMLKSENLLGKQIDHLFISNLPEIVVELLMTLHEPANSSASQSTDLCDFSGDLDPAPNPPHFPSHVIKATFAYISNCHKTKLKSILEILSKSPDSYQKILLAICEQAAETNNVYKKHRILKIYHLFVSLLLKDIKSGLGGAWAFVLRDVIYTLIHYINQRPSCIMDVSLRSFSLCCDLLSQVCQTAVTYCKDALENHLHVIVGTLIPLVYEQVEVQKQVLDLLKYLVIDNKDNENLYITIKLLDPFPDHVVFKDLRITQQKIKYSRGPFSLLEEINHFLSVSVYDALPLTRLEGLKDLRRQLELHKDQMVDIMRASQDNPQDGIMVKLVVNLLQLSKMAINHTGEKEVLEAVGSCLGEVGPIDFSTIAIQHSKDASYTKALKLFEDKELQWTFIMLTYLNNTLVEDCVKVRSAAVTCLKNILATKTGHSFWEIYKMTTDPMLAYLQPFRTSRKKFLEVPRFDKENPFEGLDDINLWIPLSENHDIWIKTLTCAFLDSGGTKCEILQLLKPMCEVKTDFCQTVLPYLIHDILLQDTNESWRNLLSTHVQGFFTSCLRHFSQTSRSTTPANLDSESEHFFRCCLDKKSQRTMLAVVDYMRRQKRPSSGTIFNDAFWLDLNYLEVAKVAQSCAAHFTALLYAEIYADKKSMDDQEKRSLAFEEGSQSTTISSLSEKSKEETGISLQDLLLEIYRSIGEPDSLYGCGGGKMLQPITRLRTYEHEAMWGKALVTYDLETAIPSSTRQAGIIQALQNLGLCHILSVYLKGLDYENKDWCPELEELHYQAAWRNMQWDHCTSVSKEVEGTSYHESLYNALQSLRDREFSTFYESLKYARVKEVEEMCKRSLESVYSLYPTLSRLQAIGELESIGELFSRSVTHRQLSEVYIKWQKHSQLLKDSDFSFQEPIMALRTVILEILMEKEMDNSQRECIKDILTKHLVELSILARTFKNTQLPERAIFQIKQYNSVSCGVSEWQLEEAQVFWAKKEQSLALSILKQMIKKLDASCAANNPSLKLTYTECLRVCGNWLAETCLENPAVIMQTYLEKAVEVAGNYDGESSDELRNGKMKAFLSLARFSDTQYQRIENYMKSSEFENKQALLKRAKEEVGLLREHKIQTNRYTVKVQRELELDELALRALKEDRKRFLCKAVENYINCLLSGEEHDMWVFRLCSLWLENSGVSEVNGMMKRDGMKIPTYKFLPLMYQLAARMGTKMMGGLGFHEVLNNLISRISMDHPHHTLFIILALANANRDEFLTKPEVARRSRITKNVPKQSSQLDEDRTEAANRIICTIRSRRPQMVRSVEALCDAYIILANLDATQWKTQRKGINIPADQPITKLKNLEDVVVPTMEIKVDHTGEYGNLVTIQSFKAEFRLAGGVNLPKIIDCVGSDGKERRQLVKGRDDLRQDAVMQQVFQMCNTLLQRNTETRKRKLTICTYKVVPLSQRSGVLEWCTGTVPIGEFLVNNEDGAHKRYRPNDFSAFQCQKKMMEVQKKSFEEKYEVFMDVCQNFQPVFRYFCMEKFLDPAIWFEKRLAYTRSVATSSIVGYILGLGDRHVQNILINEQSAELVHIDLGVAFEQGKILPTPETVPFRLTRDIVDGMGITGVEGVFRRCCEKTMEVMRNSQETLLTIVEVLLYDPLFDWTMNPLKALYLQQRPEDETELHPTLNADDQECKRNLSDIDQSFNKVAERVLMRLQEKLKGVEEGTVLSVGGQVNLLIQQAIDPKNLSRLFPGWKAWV
The experiment in a line: ATM inhibition test (phosphorylation of Chk2 generated by ionizing radiation, AlphaScreen SureFire). In kind it is cell-based. The note with it: ATM inhibitory activity, phosphorylated Chk2 in NCI-H460 cells, ionizing radiation 8Gy, 1 hour after test compound treatment. As to the method:
ATM inhibitory effects of a test compound were measured by detecting phosphorylation of Chk2 in a human non-small cell lung cancer cell line NCI-H460 (ATCC company). The level of phosphorylated Chk2 generated by an ionizing radiation was measured using AlphaScreen SureFire (TGR Biosciences).
The cells were seeded by 40000 cells per well in 96-well CellBIND® plates (Corning International Inc.), and incubated at 37° C. overnight in 5% CO2. […] 1 hour after a test compound treatment, half of the plates were irradiated with ionizing radiation 8Gy (Faxitron Bioptics, LLC, RX-650 type). The plates irradiated with ionizing radiation and the plates not being irradiated with ionizing radiation were incubated at 37° C. for 1 hour in 5% CO2. […] Subsequent operations were performed according to the instruction book of AlphaScreen SureFire. […] The inhibition ratio was calculated by the following equation. Inhibition ratio (%)=((signal of drug untreated wells in the plates irradiated with ionizing radiation−signal of drug treated wells in the plates irradiated with ionizing radiation)/(signal of drug untreated wells in the plates irradiated with ionizing radiation−signal of drug untreated wells in the plates not being irradiated with ionizing radiation))×100
Background: Alpha assays give light when donor and acceptor beads are brought close together.
Compound `O=c1cc(N2CCOCC2)cc(-c2cccc3c2Sc2ccc(NCc4cccc(N5CCOCC5)n4)cc2S3)[nH]1` [Example 1-12-32, 4-Morpholino-6-(7-(((6-morpholinopyridin-2-yl)methyl)amino)thianthren-1 yl)pyridin-2(1H)-one] returned an IC50 of 100 to 500 nM.

The assay is the same for the next values; noted with them: phosphorylated Chk2 in NCI-H460 cells, ionizing radiation 8Gy, 1 hour after test compound treatment; read-out: ATM inhibitory activity.
For the compound `Nc1ccc2c(c1)Sc1cccc(-c3cc(N4CCOCC4)cc(=O)[nH]3)c1O2` [Example 4-2, 6-(8-Aminophenoxathiin-4-yl)-4-morpholinopyridin-2(1H)-one], the IC50 lay within 100 to 500 nM.
With `COc1cncc(CN2CCC(Nc3ccc4c(c3)Sc3cccc(-c5cc(N6CCOCC6)cc(=O)[nH]5)c3S4)CC2)c1` [Example 1-24-16, 6-(7-((1-((5-Methoxypyridin-3-yl)methyl)piperidin-4-yl)amino)thianthren-1-yl)-4-morpholinopyridin-2(1H)-one], the IC50 was 100 to 500 nM.
Same read-out and setting: with `Cc1cncc(C(C)Nc2ccc3c(c2)Cc2cccc(-c4cc(N5CCOCC5)cc(=O)[nH]4)c2O3)c1` (stereo not drawn) [Example 2-14-22, 6-(7-((1-(5-Methylpyridin-3-yl)ethyl)amino)-9H-xanthen-4-yl)-4-morpholino pyridin-2(1H)-one] the figure was 100 to 500 nM; with `O=c1cc(N2CCOCC2)cc(-c2cccc3c2Oc2ccc(NCc4cnccn4)cc2C3)[nH]1` [Example 2-3-5, 4-Morpholino-6-(7-((pyrazin-2-ylmethyl)amino)-9H-xanthen-4-yl)pyridin-2(1H)-one], 100 to 500 nM; with “Ethyl 6-(((6-(4-morpholino- 6-oxo-1,6-dihydropyridin-2- yl)thianthren-2-yl)amino) methyl)picol [Example 1-12-56]”, 100 to 500 nM.
For `O=c1cc(N2CCOCC2)cc(-c2cccc3c2Oc2ccc(NCc4cncc(OC(F)F)c4)cc2C3)[nH]1` [Example 2-14-6, 6-(7-(((5-(Difluoromethoxy)pyridin-3-yl)methyl)amino)-9H-xanthen-4-yl)-4-morpholino pyridin-2(1H)-one], the IC50 lay within 100 to 500 nM.
On the same count and under the same terms, with `Cc1cnc(C(CCN(C)C)CNc2ccc3c(c2)Sc2cccc(-c4cc(N5CCOCC5)cc(=O)[nH]4)c2S3)cn1` (stereo not drawn) [Example 12-3, 6-(7-((4-(Dimethylamino)-2-(5-methylpyrazin-2-yl)butyl)amino)thianthren-1-yl)-4-morpholinopyridin-2(1H)-one] the figure was 100 to 500 nM.
On the same count and under the same terms, with `COc1ccc(CN2CCC(Nc3ccc4c(c3)Cc3cccc(-c5cc(N6CCOCC6)cc(=O)[nH]5)c3O4)CC2)cn1` [Example 2-28-6, 6-(7-((1-((6-Methoxypyridin-3-yl)methyl)piperidin-4-yl)amino)-9H-xanthen-4-yl)-4-morpholino pyridin-2(1H)-one] the figure was 100 to 500 nM; with `CC(CN1CCC1)Nc1ccc2c(c1)Sc1cccc(-c3cc(N4CCOCC4)cc(=O)[nH]3)c1S2` (stereo not drawn) [Example 1-43-1, 6-(7-((1-(azetidin-1-yl)propan-2-yl)amino)thianthren-1-yl)-4-morpholinopyridin-2(1H)-one], 100 to 500 nM.
As to `Cn1cc(-c2cncc(CNc3ccc4c(c3)Sc3cccc(-c5cc(N6CCOCC6)cc(=O)[nH]5)c3S4)c2)cn1` [Example 1-12-22, 6-(7-(((5-(1-Methyl-1H-pyrazol-4-yl)pyridin-3-yl)methyl)amino)thianthren-1-yl)-4-morpholino pyridin-2 (1H)-one], the IC50 lay in the range of 100 to 500 nM.
Take `COc1ncc(CNc2ccc3c(c2)Sc2cccc(-c4cc(N5CCOCC5)cc(=O)[nH]4)c2S3)cn1` [Example 1-12-10, 6-(7-(((2-Methoxypyrimidin-5-yl)methyl)amino)thianthren-1-yl)-4-morpholino pyridin-2(1H)-one]: the IC50 was in the range of 100 to 500 nM.
As for `COCCN1CCOC(C(Nc2ccc3c(c2)Sc2cccc(-c4cc(N5CCOCC5)cc(=O)[nH]4)c2S3)c2ccc(C)cn2)C1` (single isomer, unassigned) [Example 1-56-8, 6-(7-(((4-(2-Methoxyethyl)morpholin-2-yl)(5-methylpyridin-2-yl)methyl)amino)thianthren-1-yl)-4-morpholino pyridin-2(1H)-one], the IC50 was less than 100 nM.
Still for that read-out and setting: with `COCc1cncc(CNc2ccc3c(c2)Cc2cccc(-c4cc(N5CCOCC5)cc(=O)[nH]4)c2O3)c1` [Example 2-2-33, 6-(7-(((5-(Methoxymethyl)pyridin-3-yl)methyl)amino)-9H-xanthen-4-yl)-4-morpholino pyridin-2(1H)-one] the figure was 100 to 500 nM; with `O=c1cc(N2CCOCC2)cc(-c2cccc3c2Sc2ccc(NC(CO)CN4CCCCC4)cc2S3)[nH]1` (stereo not drawn) [Example 1-37-4, 6-(7-((1-Hydroxy-3-(piperidin-1-yl)propan-2-yl)amino)thianthren-1-yl)-4-morpholino pyridin-2(1H)-one], 100 to 500 nM; with `CN(C)[C@H]1CC[C@H](N(C)c2ccc3c(c2)Cc2cccc(-c4cc(N5CCOCC5)cc(=O)[nH]4)c2O3)CC1` [Example 2-10, 6-(7-(((Trans)-4-(dimethylamino)cyclohexyl)(methyl)amino)-9H-xanthen-4-yl)-4-morpholinopyridin-2(1H)-one], 500 to 2000 nM.
Same read-out and setting: with `COc1ccnc(C(C)Nc2ccc3c(c2)Cc2cccc(-c4cc(N5CCOCC5)cc(=O)[nH]4)c2O3)n1` (stereo not drawn) [Example 2-14-56, 6-(7-((1-(4-Methoxypyrimidin-2-yl)ethyl)amino)-9H-xanthen-4-yl)-4-morpholino pyridin-2(1H)-one] the figure was 100 to 500 nM; with `CC(Nc1ccc2c(c1)Sc1cccc(-c3cc(N4CCOCC4)cc(=O)[nH]3)c1S2)C(=O)N1CCOCC1` (stereo not drawn) [Example 1-18-5], 500 to 2000 nM.
Consider `Cc1cc(C(C)Nc2ccc3c(c2)Cc2cccc(-c4cc(N5CCOCC5)cc(=O)[nH]4)c2O3)ncn1` (stereo not drawn) [Example 2-14-52, 6-(7-((1-(6-Methylpyrimidin-4-yl)ethyl)amino)-9H-xanthen-4-yl)-4-morpholino pyridin-2 (1H)-one], for which the IC50 lay within 100 to 500 nM.
Still for that read-out and setting: with `O=c1cc(N2CCOCC2)cc(-c2cccc3c2Sc2ccc(NCCN4CCS(=O)(=O)CC4)cc2S3)[nH]1` [Example 1-16-8, 6-(7-((2-(1,1-Dioxidethiomorpholino)ethyl)amino)thianthren-1-yl)-4-morpholinopyridin-2(1H)-one] the figure was 100 to 500 nM.
As to `O=c1cc(N2CCOCC2)cc(-c2cccc3c2Sc2ccc(NC4CCN(Cc5ccccn5)CC4)cc2S3)[nH]1` [Example 1-24-19, 4-Morpholino-6-(7-((1-(pyridin-2-ylmethyl)piperidin-4-yl)amino)thianthren-1-yl)pyridin-2 (1H)-one], the IC50 lay in the range of 100 to 500 nM.
The same measure, in the same setting: with `CC(Nc1ccc2c(c1)Sc1cccc(-c3cc(N4CCOCC4)cc(=O)[nH]3)c1S2)c1ncc(CO)cn1` (single isomer, unassigned) [Example 1-12-142-2, 6-(7-((1-(5-(hydroxymethyl)pyrimidin-2-yl)ethyl)amino)thianthren-1-yl)-4-morpholinopyridin-2(1H)-one] the figure was 100 to 500 nM; with `CC(Nc1ccc2c(c1)Cc1cccc(-c3cc(N4CCOCC4)cc(=O)[nH]3)c1O2)c1cccnc1` (single isomer, unassigned) [Example 2-36-1, 4-morpholino-6-(7-((1-(pyridin-3-yl)ethyl)amino)-9H-xanthen-4-yl)pyridin-2(1H)-one], 500 to 2000 nM; with `O=c1cc(N2CCOCC2)cc(-c2cccc3c2Sc2ccc(NC4CCN(C5CCCCC5)C4)cc2S3)[nH]1` (stereo not drawn) [Example 1-24-9, 6-(7-((1-Cyclohexylpyrrolidin-3-yl)amino)thianthren-1-yl)-4-morpholinopyridin-2(1H)-one], 100 to 500 nM.
